Patent EP2181998B1, “New benzothiazinone derivative and its use as antibacterial agent” (priority 2006, dated 2007)

Experiments:
[1] = system: Mycobacterium tuberculosis clinical isolate 6374; format: cell-based
[2] = Toxicity after per os administration; settings: mice
[3] = system: Mycobacterium tuberculosis clinical isolate 6341; format: cell-based
M. vaccae IMET 10 10670 = format: cell-based
[4] = system: Mycobacterium tuberculosis H37Rv; experiment: Murine TB model (experimental hematogenously disseminated tuberculosis); format: in vivo, BALB/c line mice; settings: for Injury index: daily 6 times per week, four-score scale, liver, spleen and lungs; for Efficacy index (%): 100% - injury index of group / injury index of control x 100; for right lung Culture, without dilution CFU / spleen Culture, without dilution CFU: 42 days after inoculation of the culture medium
[5] = system: Mycobacterium tuberculosis H37Rv and clinical isolates 6341 and 6374; experiment: MIC and MBC, classical method, over several strains; format: cell-based
[6] = system: Mycobacterium smegmatis SG 987; format: cell-based; settings: Mycolicibacterium smegmatis, SG987; read-out: MIC M. smegmatis
in vivo = settings: mouse

CC1COC2(CCN(c3nc(=O)c4cc(C(F)(F)F)cc([N+](=O)[O-])c4s3)CC2)O1 (centres unmarked) [Compound 2, 2-(2-methyl-1,4-dioxa-8-azaspiro[4.5]dec-8-yl)-8-nitro-6-(trifluoromethyl)-1,3-benzothiazin-4-one]
0.195 µg/mL: MIC [1]
0.00156 µg/mL: MIC [6]
0.39 µg/mL: MBC [1] | MBC [3]
44,7%: Efficacy index (%) ([4]; 12 mg/kg orally)
0,76pg/ml: MIC M.vaccae (M. vaccae IMET 10 10670)
no cases of animal death: animal death ([2]; doses up to 2000 mg/kg, during 7 days of investigations)
1,0: Injury index ([4]; 25 mg/kg orally)
non toxic: toxicity ([2]; doses ranging up to 2000 mg/kg)
2,1: Injury index ([4]; 12 mg/kg orally)
> 2000 mg/kg: LD50 (in vivo)
∼ 35 CFU: right lung Culture, without dilution CFU ([4]; 25 mg/kg orally) | spleen Culture, without dilution CFU ([4]; 25 mg/kg orally)
∼ 60 CFU: right lung Culture, without dilution CFU ([4]; 12 mg/kg orally) | spleen Culture, without dilution CFU ([4]; 12 mg/kg orally)
78%: Efficacy index (%) ([4]; 25 mg/kg orally)
10: Survival of animals ([4]; Group 3, 12 mg/kg oral, day of treatment 1, of 10 animals) | Survival of animals ([4]; Group 3, 12 mg/kg oral, day of treatment 2, of 10 animals) | Survival of animals ([4]; Group 3, 12 mg/kg oral, day of treatment 3, of 10 animals) | Survival of animals ([4]; Group 3, 12 mg/kg oral, day of treatment 4, of 10 animals) | Survival of animals ([4]; Group 3, 12 mg/kg oral, day of treatment 5, of 10 animals) | Survival of animals ([4]; Group 3, 12 mg/kg oral, day of treatment 6, of 10 animals) | Survival of animals ([4]; Group 3, 12 mg/kg oral, day of treatment 7, of 10 animals) | Survival of animals ([4]; Group 3, 12 mg/kg oral, day of treatment 8, of 10 animals) | Survival of animals ([4]; Group 3, 12 mg/kg oral, day of treatment 9, of 10 animals) | Survival of animals ([4]; Group 3, 12 mg/kg oral, day of treatment 10, of 10 animals) | Survival of animals ([4]; Group 3, 12 mg/kg oral, day of treatment 11, of 10 animals) | Survival of animals ([4]; Group 3, 12 mg/kg oral, day of treatment 12, of 10 animals) | Survival of animals ([4]; Group 3, 12 mg/kg oral, day of treatment 13, of 10 animals) | Survival of animals ([4]; Group 3, 12 mg/kg oral, day of treatment 14, of 10 animals) | Survival of animals ([4]; Group 3, 12 mg/kg oral, day of treatment 15, of 10 animals) | Survival of animals ([4]; Group 3, 12 mg/kg oral, day of treatment 16, of 10 animals) | Survival of animals ([4]; Group 3, 12 mg/kg oral, day of treatment 17, of 10 animals) | Survival of animals ([4]; Group 3, 12 mg/kg oral, day of treatment 18, of 10 animals) | Survival of animals ([4]; Group 3, 12 mg/kg oral, day of treatment 19, of 10 animals) | Survival of animals ([4]; Group 3, 12 mg/kg oral, day of treatment 20, of 10 animals) | Survival of animals ([4]; Group 3, 12 mg/kg oral, day of treatment 21, of 10 animals) | Survival of animals ([4]; Group 3, 12 mg/kg oral, day of treatment 22, of 10 animals) | Survival of animals ([4]; Group 3, 12 mg/kg oral, day of treatment 23, of 10 animals) | Survival of animals ([4]; Group 3, 12 mg/kg oral, day of treatment 24, of 10 animals) | Survival of animals ([4]; Group 3, 12 mg/kg oral, day of treatment 25, of 10 animals) | Survival of animals ([4]; Group 3, 12 mg/kg oral, day of treatment 26, of 10 animals) | Survival of animals ([4]; Groups 4/5, 25 mg/kg oral, day of treatment 1, of 10 animals) | Survival of animals ([4]; Groups 4/5, 25 mg/kg oral, day of treatment 2, of 10 animals) | Survival of animals ([4]; Groups 4/5, 25 mg/kg oral, day of treatment 3, of 10 animals) | Survival of animals ([4]; Groups 4/5, 25 mg/kg oral, day of treatment 4, of 10 animals) | Survival of animals ([4]; Groups 4/5, 25 mg/kg oral, day of treatment 5, of 10 animals) | Survival of animals ([4]; Groups 4/5, 25 mg/kg oral, day of treatment 6, of 10 animals) | Survival of animals ([4]; Groups 4/5, 25 mg/kg oral, day of treatment 7, of 10 animals) | Survival of animals ([4]; Groups 4/5, 25 mg/kg oral, day of treatment 8, of 10 animals) | Survival of animals ([4]; Groups 4/5, 25 mg/kg oral, day of treatment 9, of 10 animals) | Survival of animals ([4]; Groups 4/5, 25 mg/kg oral, day of treatment 10, of 10 animals) | Survival of animals ([4]; Groups 4/5, 25 mg/kg oral, day of treatment 11, of 10 animals) | Survival of animals ([4]; Groups 4/5, 25 mg/kg oral, day of treatment 12, of 10 animals) | Survival of animals ([4]; Groups 4/5, 25 mg/kg oral, day of treatment 13, of 10 animals) | Survival of animals ([4]; Groups 4/5, 25 mg/kg oral, day of treatment 14, of 10 animals) | Survival of animals ([4]; Groups 4/5, 25 mg/kg oral, day of treatment 15, of 10 animals) | Survival of animals ([4]; Groups 4/5, 25 mg/kg oral, day of treatment 16, of 10 animals) | Survival of animals ([4]; Groups 4/5, 25 mg/kg oral, day of treatment 17, of 10 animals) | Survival of animals ([4]; Groups 4/5, 25 mg/kg oral, day of treatment 18, of 10 animals) | Survival of animals ([4]; Groups 4/5, 25 mg/kg oral, day of treatment 19, of 10 animals) | Survival of animals ([4]; Groups 4/5, 25 mg/kg oral, day of treatment 20, of 10 animals) | Survival of animals ([4]; Groups 4/5, 25 mg/kg oral, day of treatment 21, of 10 animals) | Survival of animals ([4]; Groups 4/5, 25 mg/kg oral, day of treatment 22, of 10 animals) | Survival of animals ([4]; Groups 4/5, 25 mg/kg oral, day of treatment 23, of 10 animals) | Survival of animals ([4]; Groups 4/5, 25 mg/kg oral, day of treatment 24, of 10 animals) | Survival of animals ([4]; Groups 4/5, 25 mg/kg oral, day of treatment 25, of 10 animals) | Survival of animals ([4]; Groups 4/5, 25 mg/kg oral, day of treatment 26, of 10 animals)
0.29 µg/mL: MIC [3] | MIC ([5]; read-out: MIC (µg/mL) mean)
0.45 µg/mL: MBC ([5]; read-out: MBC (µg/mL) mean)
100%: Survival of animals ([4]; Group 3, 12 mg/kg oral, day of treatment 27) | Survival of animals ([4]; Groups 4/5, 25 mg/kg oral, day of treatment 27) | mice survived ([4]; murine model of tuberculosis infection, all control animals died until day 33)
